Data published in patent US8716242B2, “β-hairpin peptidomimetics” (priority 2009, dated 2014).
Read-outs that look alike come from different tables or passages of the source. Numbered stars: 1 amine (or outer) side, 2 acyl side, 3 side chain; on linkers, the order of the positions; unused ones are H or OH. Bridge positions count the residues as written; N and C are the ends. Square brackets hold non-standard residues; d marks the D form. Peptide text beside a SMILES is read from it. * marks the point of attachment. X2 = CCCCCCCCCC[C@@H](N[*:1])C(=O)[*:2]; Lauroyl = CCCCCCCCCCCC(=O)*; Dab = NCC[C@H](N)C(=O)O; Dodecyl = CCCCCCCCCCCC*

Tests used:
human CXCR4 = biological target: T1, human CXCR4 (Homo sapiens, UniProt P61073); assay: Ca2+-assay: CXCR4-antagonizing activity (SDF-1 induced calcium mobilization); type: cell-based
T1 construct: expressed in transfected cells; host or cells: mouse pre-B cell line 300-19
T1 sequence (P61073 whole entry): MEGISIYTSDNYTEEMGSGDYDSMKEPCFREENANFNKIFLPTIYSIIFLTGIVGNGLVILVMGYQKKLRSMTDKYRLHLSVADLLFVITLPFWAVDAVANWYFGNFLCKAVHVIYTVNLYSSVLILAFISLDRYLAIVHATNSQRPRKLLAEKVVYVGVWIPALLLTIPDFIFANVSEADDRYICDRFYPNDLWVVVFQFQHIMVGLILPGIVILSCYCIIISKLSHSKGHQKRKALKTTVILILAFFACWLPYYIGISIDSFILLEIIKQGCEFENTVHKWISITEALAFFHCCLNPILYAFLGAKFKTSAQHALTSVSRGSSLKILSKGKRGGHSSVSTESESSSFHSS
From the text: 2.3. Ca^2+-Assay: CXCR4-Antagonizing Activity of the Peptides
Increases in intracellular calcium were monitored using a Flexstation 384 (Molecular Devices, Sunnyvale, Calif.) to assay the peptides for CXCR4 antagonism in a mouse pre-B cell line 300-19 stably transfected with human CXCR4 (E. Oberlin, A. Amara, F. Bachelerie, C. Bessia, J.-L. Virelizier, F. Arenzana-Seisdedos, O, Schwartz, J.-M. Heard, I. Clark-Lewis, D. F. Legler, M. Loetscher, M. Baggiolini, B. Moser, Nature 1996, 382, 833-835; M. Loetscher, T. Geiser, T. O'Reilly, R. Zwalen, M. Baggiolini, B. Moser, J. Biol. Chem. 1994, 269, 232-237; M. D'Apuuo, A. Rolink, M. Loetscher, J. A. Hoxie, I. Clark-Lewis, F. Melchors, M. Baggiolini, B. Moser, Eur. J. Immunol. 1997, 27, 1788-1793). The cells were batch loaded with the Calcium 4 Assay kit (Molecular Devices) in assay buffer (Hanks Balanced salt solution [HBSS], 20 mM HEPES, pH 7.4, 0.1% BSA) for 1 h at room temperature and labeled cells were dispensed into black well assays plates (Costar No. 3603). Calcium mobilization induced by stromal-derived factor-1 (SDF-1) was measured in the Flexstation 384 (excitation: 485 nm; emission: 525 nm) for 90 seconds. Antagonist activity of peptides was determined by spiking the cells with compounds prior to SDF-1 addition. Dose response curves (compound concentration versus % maximum response for SDF-1) were determined for each antagonist and IC50 values were calculated by fitting the data to a four parameter logistic equation using SoftmaxPro 4.8 (Molecular Devices).

[1] = Cytotoxicity, MTT reduction assay, HELA cells; type: cell-based; conditions: human, HELA cells (Acc57), 12.5-50 μM
Protocol: (§1) Mouse pre-B cells were cultured in RPMI1640 plus 5% FBS, antibiotic/antimycotic, non essential amino acid, 50 μM β-mercaptoethanol and 1 mM natrium pyruvate. HELA cells were maintained in RPMI1640 plus 10% FBS, pen/strept and 2 mM L-glutamine. Cos-7 cells were grown in DMEM medium with […] glucose supplemented with 10% FCS, pen/strept and 2 mM L-glutamine. All cell lines were grown at 37° C. at 5% CO2. Cell media, media supplements, PBS-buffer, HEPES, antibiotic/antimycotic, pen/strept, non essential amino acid, L-glutamine, β-mercaptoethanol and sera were purchased from Gibco (Pailsey, UK). All fine chemicals were supplied by Merck (Darmstadt, Germany).
(§2) The cytotoxicity of the peptides to HELA cells (Acc57) and COS-7 cells (CRL-1651) was determined using the MTT reduction assay (T. Mossman, J. Immunol. Meth. 1983, 65, 55-63; M. V. Berridge, A. S. Tan, Arch. Biochem. Biophys. 1993, 303, 474-482). Briefly, the method was as follows: 4000 HELA cells/well and 3400 COS-7 cells/well were seeded and grown in 96-well microtiter plates for 24 h at 37° C. at 5% CO2. Thereafter, time zero (Tz) was determined by MTT reduction (see below). The supernatant of the remaining wells was discarded, and fresh medium and compounds in serial dilutions (12.5, 25 and 50 μM, triplicates) were pipetted into the wells. After incubation of the cells for 48 h at 37° C. at 5% CO2 the supernatant was discarded again and 100 μL MTT reagent (0.5 mg/mL in RPMI1640 and DMEM, respectively)/well was added. Following incubation at 37° C. for 2-4 h the media were aspirated and the cells were spiked (100 μL isopropanol/well). The absorbance of the solubilized formazan was measured at 595 nm (OD595peptide). For each concentration averages were calculated from triplicates. The percentage of growth was calculated as follows: (OD595peptide-OD595Tz-OD595Empty well)/(OD595Tz-OD595Empty well)×100%. The GI50 (Growth Inhibition) concentrations were calculated for each peptide by using a trend line function for the concentrations (50, 25, 12.5 and 0 μM), the corresponding percentages and the value 50, (=TREND (C50: C0, %50:%0,50).

[2] = Cytotoxicity, MTT reduction assay, COS-7 cells; type: cell-based; conditions: African green monkey, COS-7 cells (CRL-1651), 12.5-50 μM
Protocol: as §1, §2

[3] = tested on: human red blood cells (hRBC); assay: Hemolysis of human red blood cells; type: cell-based; conditions: 20% hRBC, 1 h, 37° C.
Protocol: The peptides were tested for their hemolytic activity against human red blood cells (hRBC). Fresh hRBC were washed three times with phosphate buffered saline (PBS) and centrifuged for 10 min at 2000×g. Compounds (100 μM) were incubated with 20% hRBC (v/v) for 1 h at 37° C. and shaking at 300 rpm. The final erythrocyte concentration was approximately 0.9×10^9 cells/mL. A value of 0% and 100% cell lyses, respectively, was determined by incubation of hRBC in the presence of PBS containing 0.001% acetic acid and 2.5% Triton X-100 in H2O, respectively. The samples were centrifuged, the supernatants were 8-fold diluted in PBS buffer and the optical densities (OD) were measured at 540 nm. The 100% lyses value (OD540H2O) gave an OD540 of approximately 0.5-1.0.
(§3) Percent hemolysis was calculated as follows: (OD540peptide/OD540H2O)×100%. 2.6. Plasma Stability

[4] = Plasma stability in human plasma; type: in vitro ADME; conditions: human plasma, 37° C.; for remaining at 24 h, 10 μM: 1440 min, read-out: human pl. cpd left at 1440 min; for human pl. T1/2: up to 1440 min
Protocol: as §3
(§4) The stability of the peptides in human and mouse plasma was determined by applying the following method: 346.5 μL/deep well of freshly thawed human plasma (Basler Blutspendedienst) and mouse plasma (Harlan Sera-Lab, UK), respectively, were spiked with 3.5 μL/well of compound dissolved in DMSO/H2O ([…] [v/v], 1 mM, triplicate) and incubated at 37° C. At t=0, 15, 30, 60, 120, 240 and 1440 min aliquots of 50 μL were transferred to filtration plate wells containing 150 μL/well of 2% formic acid in acetonitrile. Following shaking for 2 min the occurred suspensions were filtrated by vacuum and 50 μL of each filtrate was mixed with 100 μL of 1% formic acid in H2O. After transfer to a propylene microtiter plate, the filtrates were analyzed by LC/MS as follows: Column: Waters, XBridge C18, mobile phases: (A) water+0.1% formic acid and (B) acetonitrile/water, 95/5 (v/v)+0.1% formic acid, gradient: 5%-100% (B) in 2 minutes, electrospray ionization, MRM detection (triple quadrupole). The peak areas were determined and triplicate values are averaged. The stability is expressed in percent of the initial value at t=0. (tx/t0×100). By using the TREND function of EXCEL (Microsoft Office 2003) T1/2 were determined.

[5] = Plasma stability in mouse plasma; type: in vitro ADME; conditions: mouse plasma, 37° C.; for remaining at 24 h, 10 μM: 1440 min, read-out: mouse pl. cpd left at 1440 min; for mouse pl. T1/2: up to 1440 min
Protocol: as §3, §4

SMILES | IC50 (human CXCR4) [nM] | GI50 at 48 h [1] [µM] | GI50 at 48 h [2] [µM] | Hemolysis at 100 μM [3] [%] | remaining at 24 h, 10 μM [4] [%] | human pl. T1/2 [4] [min] | remaining at 24 h, 10 μM [5] [%] | mouse pl. T1/2 [5] [min] | IC50 (human CXCR4; mouse pre-B cell line 300-19 transfected with human CXCR4, SDF-1 induced Ca2+ mobilization, read-out: IC50% [nM] ± SD, CXCR4 receptor) [nM]
CCCCCCCCCCCC(=O)NCC[C@@H]1NC(=O)[C@H]2CCCN2C(=O)[C@H](C)NC(=O)[C@H](CCCNC(=N)N)NC(=O)[C@@H]2CSSC[C@H](NC(=O)[C@H](Cc3ccc(O)cc3)NC(=O)[C@H](CCCNC(=N)N)NC1=O)C(=O)N[C@@H](Cc1ccc(O)cc1)C(=O)N[C@@H](CCC(N)=O)C(=O)N[C@@H](CCCCN)C(=O)N1CCC[C@@H]1C(=O)N1CCC[C@H]1C(=O)N[C@@H](Cc1ccc(O)cc1)C(=O)N[C@@H](Cc1c[nH]cn1)C(=O)N[C@@H](C)C(=O)N2 [Ex. 5] (cyclo(YHACRA[dP][Dab](Lauroyl)RYCYQK[dP]P); disulfide 4-11) | 95.5 ± 12 | > 50 | > 43 | 0.3 | 100 | 1440 | 73 | 1440 | –
CCCCCCCCCCCCOc1ccc(C[C@@H]2NC(=O)[C@H](CCCNC(=N)N)NC(=O)[C@H](CCN)NC(=O)[C@H]3CCCN3C(=O)[C@H](C)NC(=O)[C@H](CCCNC(=N)N)NC(=O)[C@@H]3CSSC[C@H](NC2=O)C(=O)N[C@@H](Cc2ccc(O)cc2)C(=O)N[C@@H](CCC(N)=O)C(=O)N[C@@H](CCCCN)C(=O)N2CCC[C@@H]2C(=O)N2CCC[C@H]2C(=O)N[C@@H](Cc2ccc(O)cc2)C(=O)N[C@@H](Cc2c[nH]cn2)C(=O)N[C@@H](C)C(=O)N3)cc1 [Ex. 7] (cyclo(YHACRA[dP][Dab]RY(Dodecyl)CYQK[dP]P); disulfide 4-11) | 59.8 ± 27 | > 35 | > 50 | 11.5 | 67 | 1440 | 87 | 1440 | –
CCCCCCCCCC[C@H]1NC(=O)[C@H](Cc2ccc(O)cc2)NC(=O)[C@@H]2CSSC[C@H](NC(=O)[C@H](C)NC(=O)[C@H](Cc3c[nH]cn3)NC(=O)[C@H](Cc3ccc(O)cc3)NC(=O)[C@@H]3CCCN3C(=O)[C@H]3CCCN3C(=O)[C@H](CCCCN)NC1=O)C(=O)N[C@@H](CCCNC(=N)N)C(=O)N[C@@H](C)C(=O)N1CCC[C@@H]1C(=O)N[C@@H](CCN)C(=O)N[C@@H](CCCNC(=N)N)C(=O)N[C@@H](Cc1ccc(O)cc1)C(=O)N2 [Ex. 9] (cyclo(YHACRA[dP][Dab]RYCY[X2]K[dP]P); disulfide 4-11) | – | > 13 | > 50 | 2.2 | 100 | 1440 | 76 | 1440 | 91.3 ± 19
